Assay results as given in US20080153792A1, “Drug Identification and Treatment Method” (priority 2006, published 2008).
“Also recorded” adds a separate entry of the source. Read-outs that look alike come from different tables or passages of the source.

Key:
[1] = molecular target: NF-κB; assay: NF-κB-bla THP-1 β-lactamase reporter assay; type: cell-based, human
[2] = tested on: female SJL mice, EAE; assay: experimental autoimmune encephalomyelitis (EAE), PLP-induced, Example 23; type: in vivo, mouse; settings: for course of EAE compared to vehicle-treated mice: 0.1 mg q.d. po from clinical onset; for mean cumulative score, treatment period (day 1 to 30): vehicle 24.8±7.8; for mean cumulative score, follow-up period (day 31 to day 54): vehicle 22.7±15.8
[3] = tested on: CD1 male mice, carrageenan-λ induced pleurisy; assay: carrageenan-λ induced lung (pleural cavity) inflammation in mice; type: in vivo, mouse; settings: for number of neutrophils relative to untreated carrageenan-λ control (100%): 4 h after carrageenan
[4] = metabolic stability in liver microsomes: human; settings: 10 min
Description: (§1) The protocol was performed as follows. […] (2) Set up samples as follows. […] (4) The internal standard/acetonitrile solution.

[5] = metabolic stability in liver microsomes: mouse; settings: 10 min
Description: as §1

[6] = tested on: MG-63 cells; assay: reversal of glucocorticoid effects in MG-63 osteosarcoma cells; type: cell-based, human
[7] = 0.1 mg q.d. po from clinical onset to day 30
[8] = Homo sapiens, THP-1, read-out: IC50, this protocol
[9] = anti-inflammatory activity in this protocol, read-out: IC50
[10] = Homo sapiens, THP-1, read-out: IC50 for inhibition of NF-κB activation, after LPS stimulation, 50% of the maximum inhibition the compound can induce, averages of 2-4 assays
[11] = after LPS stimulation, 50% of the maximum inhibition the compound can induce, averages of 2-4 assays, read-out: IC50 for inhibition of NF-κB activation
[12] = compounds increased NF-κB activity, read-out: IC50 of compounds that increased NF-κB activity

## C[C@]12CC[C@H](O)CC1CC[C@@H]1[C@@H]2CC[C@]2(C)C(=NO)[C@@H](O)C[C@@H]12 (stereo partly drawn) [androstane-3β,16β-diol-17-oxime]
[1]; this protocol, read-out: IC50
  IC50: 1.9 µM

## C[C@]12CC[C@H](O)C[C@@H]1CC[C@@H]1[C@@H]2CC[C@]2(C)[C@@H](O)C(=NO)C[C@@H]12 [5α-androstane-3β,17β-diol-16-oxime]
[2]
  course of EAE compared to vehicle-treated mice: very similar to that observed in the vehicle-treated mice

## Cc1cc(C)c(/C=C2\C(=O)Nc3ccccc32)[nH]1 [SU5416, Z-3-[(2,4-dimethylpyrrol-5-yl)methylidenyl]-2-indolinone, reference compound]
[2]
  course of EAE compared to vehicle-treated mice: very similar to that observed in the vehicle-treated mice; also recorded: ineffective
[2]; [7]
  mean cumulative score, treatment period (day 1 to 30): 25.5±8.9
[2]; after end of treatment
  mean cumulative score, follow-up period (day 31 to day 54): 35.5±13.2

## C[C@]12CC[C@H]3[C@@H](CCC4C[C@H](O)CC[C@@]43C)[C@@H]1C[C@H](O)[C@@H]2O (stereo partly drawn) [3α,16β,17β-trihydroxyandrostane]
[3]; 0.001 mg s.c. 24 h and 1 h before carrageenan-λ
  number of neutrophils relative to untreated carrageenan-λ control (100%): 95%
[3]; 0.01 mg s.c. 24 h and 1 h before carrageenan-λ
  number of neutrophils relative to untreated carrageenan-λ control (100%): 50%
[3]; 0.1 mg and 0.01 mg doses s.c.
  number of neutrophils in the pleura: significant reduction
[3]; 0.1 mg s.c. 24 h and 1 h before carrageenan-λ
  number of neutrophils relative to untreated carrageenan-λ control (100%): 42%
[1]; [8]
  IC50: 19 µM

## C[C@]12CC[C@H]3[C@@H](CC=C4C[C@](O)(C(F)(F)F)CC[C@@]43C)[C@@H]1CC[C@@H]2O [3α-trifluoromethylandrost-5-ene-3β,17β-diol]
[2]
  course of EAE compared to vehicle-treated mice: significantly improved course of EAE
[2]; [7]
  mean cumulative score, treatment period (day 1 to 30): 11.2±4.8
[2]; after end of treatment
  mean cumulative score, follow-up period (day 31 to day 54): 10.8±10.3

## C[C@]12CC[C@H]3[C@@H](CCC4C[C@H](O)CC[C@@]43C)[C@@H]1C[C@@H](O)[C@@H]2O (stereo partly drawn) [3α,16α,17β-trihydroxyandrostane]
[1]; [8]
  IC50: 6.9 µM

## C[C@]12C[C@H](O)[C@H]3[C@@H](CC=C4C[C@@H](O)CC[C@@]43C)[C@@H]1CC[C@@H]2O [androst-5-ene-3β, 11β,17β-triol]
[1]; [8]
  IC50: > 10 µM

## C[C@]12CC[C@H]3[C@@H]([C@H](O)C=C4C[C@H](O)CC[C@@]43C)[C@@H]1C[C@@H](O)[C@@H]2O [androst-5-ene-3α,7α,16α,17β-tetrol]
[4]
  parent remaining human microsomes: 100% (10 min)
[5]
  parent remaining mouse microsomes: 100% (10 min)

## C[C@]12CC[C@H]3[C@@H](CC=C4C[C@H](O)CC[C@@]43C)[C@@H]1CC[C@@H]2O [androst-5-ene-3α,17β-diol]
[1]; [8]
  IC50: > 10 µM

## C[C@]12CC[C@H]3[C@@H](CCC4=C[C@H](O)CC[C@@]43C)[C@@H]1CC[C@@H]2O [3α,17β-dihydroxyandrost-4-ene]
[6]; similar protocols
  dexamethasone induced 11β-HSD mRNA: decrease
  reversal of dexamethasone-induced suppression of IL-8 and IL-6: statistically significant reversal

## TNFα
[1]; positive control assays, 1 hour β-lactamase substrate incubation
  EC50 for activation of NF-κB: 0.20 ng/mL

## CC12CCC(O)(C(F)(F)C(F)(F)F)C=C1CCC1C2CCC2(C)C(O)CCC12 (stereo not drawn) [3α-pentafluoroethylandrost-4-ene-3β,17β-diol]
[1]; [9]
  IC50: 0.0031 µM

## C[C@]12CC[C@H](O)CC1=CC[C@@H]1[C@@H]2[C@H](O)C[C@]2(C)C(=O)CC[C@@H]12 [3β,11α-dihydroxy-17-oxoandrost-5-ene]
[1]; [10]
  IC50: > 10 µM

## C[C@]12CC[C@H](O)CC1=CC[C@@H]1[C@@H]2CC[C@]2(C)C(=O)[C@@H](Br)C[C@@H]12 [16β-bromo-3β-hydroxyandrost-5-ene-17-one]
[1]; [8]
  IC50: > 10 µM

## C[C@]12CC[C@H]3[C@@H](CC=C4C[C@@H](O)CC[C@@]43C)[C@@H]1C[C@@H](Br)[C@@H]2O [16α-bromo-3β,17β-dihydroxyandrost-5-ene]
[1]; [8]
  IC50: > 10 µM

## CC12CCC(O)CC1=CC(=O)C1C2CCC2(C)C1CCC2(C)O (stereo not drawn) [3β,17β-dihydroxy-7-oxo-17α-methylandrost-5-ene]
[6]; 100 nM compound
  osteoprotegerin levels in the presence of 30 nM dexamethasone: increased osteoprotegerin levels
[1]; [11]
  IC50: > 10 µM

## CC(=O)O[C@@H]1C[C@H]2[C@@H]3[C@@H](O)C=C4C[C@@H](O)CC[C@]4(C)[C@H]3CC[C@]2(C)[C@H]1O [16α-acetoxy-3β,7β,17β-trihydroxyandrost-5-ene]
[1]; Homo sapiens, THP-1, after LPS stimulation, 50% of the maximum inhibition the compound can induce, averages of 2-4 assays, read-out: IC50 for inhibition of NF-κB activation
  IC50: > 10 µM

## C[C@]12CC[C@H](O)C[C@@H]1CC[C@@H]1[C@@H]2CC[C@]2(C)C(=O)[C@@H](Br)C[C@@H]12 [16β-bromoepiandrosterone]
[1]; this protocol
  maximum NF-κB inhibition: 100%

## C#C[C@@]1(O)CC[C@H]2[C@@H]3[C@@H](O)C=C4C[C@@H](O)CC[C@]4(C)[C@H]3CC[C@@]21C [17β-ethynylandrost-5-ene-3β,7β,17α-triol]
[2]; 0.1 mg q.d. po
  EAE incidence at the end of the treatment period: 57.1%
[2]
  course of EAE compared to vehicle-treated mice: trend toward reduced cumulative score and duration
[2]; 0.1 mg q.d. po from clinical onset to day 30, vehicle 12.3±4.3
  duration of the disease: 7 ± 7.9 days
[2]; [7]
  mean cumulative score, treatment period (day 1 to 30): 14.9±17.6
[2]; after end of treatment
  EAE incidence at the end of the follow-up period: 85.7%
  mean cumulative score, follow-up period (day 31 to day 54): 18.4±20.6

## C[C@]12CC[C@H]3[C@@H](CC=C4C[C@@H](O)CC[C@@]43C)[C@@H]1CC[C@H]2O [3β,17α-dihydroxyandrost-5-ene]
[1]; [8]
  IC50: > 10 µM

## C[C@]12CCCCC1=CC[C@@H]1[C@@H]2CC[C@]2(C)C(=O)[C@H](F)C[C@@H]12 [16α-fluoroandrost-5-ene-17-one]
[1]; [8]
  IC50: 30 µM

## C[C@]12CC[C@H](O)CC1=C[C@@H](O)[C@@H]1[C@@H]2CC[C@]2(C)C(=O)[C@H](O)C[C@@H]12 [androst-5-ene-3β,7α,16α-triol-17-one]
[1]; compound increased NF-κB activity
  NF-κB activity compared to control cells: 140%
[1]; [12]
  IC50: 0.0013 µM

## C[C@]12CC[C@H](O)CC1=CC[C@@H]1[C@@H]2CC[C@@]2(C)[C@H]1CC[C@@]2(O)C(F)(F)F [17α-trifluoromethylandrost-5-ene-3β,17β-diol]
[2]
  course of EAE compared to vehicle-treated mice: significantly improved course of EAE

## C[C@]12CC[C@H]3[C@@H](CCC4C[C@@H](O)CC[C@@]43C)[C@@H]1CC[C@@H]2C(=O)CN (stereo partly drawn) [17β-glycylandrostane-3β-ol]
[1]; [8]
  IC50: 0.42 µM

## C[C@@]1(O)CC[C@@]2(C)[C@@H](CC[C@@H]3[C@@H]2CC[C@@]2(C)[C@H]3CC[C@]2(C)O)C1 [3β,17α-dimethylandrostane-3α,17β-diol]
[1]; [12]
  IC50: 0.04 µM

## C[C@]12CC[C@H]3[C@@H](CC=C4C[C@@H](O)CC[C@@]43C)[C@@H]1CC[C@@H]2OC(=O)CCC(=O)O [androst-5-ene-3β-ol-17β-succinyl ester]
[1]; [9]
  IC50: 0.0002 µM

## CC12CCC(O)CC1CCC1C2CCC2(C)C1CCC2(O)C(F)(F)F (stereo not drawn) [17α-trifluoromethylandrostane-3α,17β-diol]
[1]; [9]
  IC50: 0.19 µM

## C[C@]12CC[C@H](O)CC1=C[C@H](O)[C@@H]1[C@@H]2CC[C@@]2(C)[C@H]1CC[C@]2(C)O [3β,7β,17β-trihydroxy-17α-methylandrost-5-ene]
[6]; 10 nM compound
  osteoprotegerin levels in the presence of 30 nM dexamethasone: normal osteoprotegerin levels

## C#C[C@]1(O)CC[C@H]2[C@@H]3CCC4=CC(=O)CC[C@]4(C)[C@H]3CC[C@@]21C [17α-ethynylandrost-4-ene-3-one-17β-ol]
[1]; this protocol
  maximum NF-κB inhibition: 80%
[1]; this protocol, read-out: IC50
  IC50: 2.9 µM

## CC12CCC(O)CC1=CC(O)C1C2CCC2(C)C1CCC2(O)C(F)(F)F (stereo not drawn) [3β,7β,17β-trihydroxy-17α-trifluoromethylandrost-5-ene]
[6]; 1 μM compound
  osteoprotegerin levels in the presence of 30 nM dexamethasone: normal or basal osteoprotegerin levels
[1]; [11]
  IC50: > 10 µM

## C[C@]12CC[C@H]3[C@@H](CC=C4C[C@](O)(C(F)(F)C(F)(F)F)CC[C@@]43C)[C@@H]1CC[C@@H]2O [3α-pentafluoroethylandrost-5-ene-3β,17β-diol]
[1]; [9]
  IC50: 0.017 µM
[1]; this protocol
  maximum NF-κB inhibition: 50%

## C[C@]12CCCCC1=C[C@H](O)[C@@H]1[C@@H]2CC[C@]2(C)C(=O)[C@@H](F)C[C@@H]12 [16β-fluoroandrost-5-ene-7β-ol-17-one]
[1]; [9]
  IC50: 0.0015 µM

## C[C@]12CC[C@H]3[C@@H]([C@H](O)C=C4C[C@@H](O)CC[C@@]43C)[C@@H]1CC[C@@H]2O [3β,7α,17β-trihydroxyandrost-5-ene]
[1]; [10]
  IC50: > 10 µM

## C[C@]12C[C@H](O)[C@H]3[C@@H]([C@@H](O)C=C4C[C@@H](O)CC[C@@]43C)[C@@H]1CC[C@@H]2O [3β,7β,11β,17β-tetrahydroxyandrost-5-ene]
[1]; [10]
  IC50: > 10 µM

## C[C@]12CC[C@H](O)CC1CC(=O)[C@@H]1[C@@H]2CC[C@]2(C)C(=O)CC[C@@H]12 (stereo partly drawn) [3β-hydroxyandrostane-7,17-dione]
[1]; [8]
  IC50: > 10 µM

## C[C@]12CC[C@H]3[C@@H](C(=NO)C=C4C[C@@H](O)CC[C@@]43C)[C@@H]1CC[C@@H]2O [androst-5-ene-3β,17β-diol-7-oxime]
[6]; concentration not given
  reversal of the decrease in osteoprotegerin in the presence of 30 nM dexamethasone: partially reversed

## CC(=O)O[C@H]1CC[C@@]2(C)C(=C[C@H](O)[C@H]3[C@@H]4CC[C@H](O)[C@@]4(C)CC(=O)[C@@H]32)C1 [3β-acetoxy-7β,17β-dihydroxy-11-oxoandrost-5-ene]
[1]; [8]
  IC50: 1 µM
[1]; this protocol
  maximum NF-κB inhibition: 65%

## C[C@]12CC[C@H]3[C@@H](CCC4C[C@@H](C(=O)CN)CC[C@@]43C)[C@@H]1CC[C@@H]2O (stereo partly drawn) [3β-glycylandrostane-17β-ol]
[1]; Homo sapiens, THP-1, read-out: IC50, anti-inflammatory activity in this protocol
  IC50: 0.001 µM

## C[C@]12CCCCC1CC[C@@H]1[C@@H]2CC[C@]2(C)C(=O)[C@H](F)C[C@@H]12 (stereo partly drawn) [16α-fluoroandrostane-17-one]
[1]; [8]
  IC50: > 10 µM
